Data published in paper PMC6150237, “Study of Absorption Characteristics of the Total Saponins from Radix Ilicis Pubescentis in an In Situ Single-Pass Intestinal Perfusion (SPIP) Rat Model by Using Ultra Performance Liquid Chromatography (UPLC)” (Molecules : A Journal of Synthetic Chemistry and Natural …, 2017).
“And” between values parts separate entries of the source, which are not always exact repeats. Equal entries are not always repeated. “Also recorded” adds a separate entry of the source.

Key:
[1] = test system: rat small intestine (duodenum, jejunum, ileum); test: In situ single-pass intestinal perfusion (SPIP), saponins administrated in monomer forms; assay type: in vivo; design: key to Papp / Ka: -: no absorption; conditions: for intestinal absorption of monomers: small intestine, result in words; for permeability classification: monomers, Papp > 0.12 × 10^−2 cm·min^−1 classified as completely absorbed (highly permeable)
Experimental: (§1) MDQ-TS perfusion samples at low, middle, and high concentration levels of 1.25, 2.5, and 5.0 mg·mL^−1 were prepared by separately dissolving MDQ-TS in the minimum amount of DMSO and diluted with K-R buffer solution. The amount of DMSO was 0.5% in the final perfusion solutions. C1, C2, C3, C4, DC1, and DC2 perfusion samples with the concentration equivalent to the amount contained in 2.5 mg·mL^−1 of MDQ-TS were individually prepared in the same way. Verapamil, amantadine and EDTA were directly dissolved in the MDQ-TS perfusate with terminal concentrations of 200 μmol·L^−1, 2.5 mmol·L^−1, and 2.5 mmol·L^−1, accordingly, and used for investigating the mechanisms involved for absorption.
(§2) In situ single-pass intestinal perfusion (SPIP) studies were performed using an experimental design adapted from the literature with some modifications. Briefly, male Sprague-Dawley rats weighing 180–220 g were acclimatized for at least one week before the experiment, and fasted for 18 h with free access to water before the perfusion experiment. Rats were anesthetized with an intraperitoneal injection of urethane (30 mg·kg^−1 body weight), and kept on a homeothermic blanket to maintain normal body temperature. The abdomen was opened with a midline longitudinal incision, and three segments of rat intestine (duodenum, jejunum, and ileum) of approximately 10 cm each were carefully cannulated on two ends with plastic tubing. Initially, the perfusion solution free of drug (37 °C) was pumped by peristaltic pump (BT100-1F, Longer Pump Co., Baoding, China) through the cannulated segments at a flow rate of 1 mL/min for approximately 30 min in order to clean out any residual debris. Secondly, the perfusion solution containing a known concentration of substance (C1, C2, C3, C4, DC1, DC2, and MDQ-TS) was perfused at 37 °C through the intestinal lumen at a constant flow rate of 0.2 mL/min. The first 20 min of period corresponds to steady state, i.e., when the substance is in equilibrium with the intestinal membrane. After steady state, samples were collected from distal portion of duodenum, jejunum and ileum at 10 min intervals (0–10, 10–20, 20–30, 30–40, 40–50, 50–60 min) in pre-weighted vials. Samples were immediately frozen at −20 °C until analysis by validated UPLC. During the experiment, care was taken to avoid disturbance of the circulatory system and the exposed segment was covered with a piece of sterilized gauze to keep it warm and moist by frequent application of warm (37 °C) saline. The intestinum tenue maintained its viability and intact state without disrupting the blood supply throughout the experimental period. Finally, animals were sacrificed after depth anesthesia by intraperitoneal injection of urethane, according to protocols for euthanasia in experimental animals. After death, the intestinal segment was removed for measurements of length and inside diameter.
(§3) The net water flux in the in situ perfusion studies (water absorption and efflux in the intestinal segment) was determined by gravimetric method. The effective absorption rate constant (Ka) and effective apparent permeability (Papp) of compounds in the intestinal segments were calculated according to the following mathematical expression:(1) Ka=(1−CoutQout/CinQin)Q/V (2) Papp=−Qln(CoutQout/CinQin)/2πrl where Cin and Cout are the concentration of test drug in the effluent perfusate through the inlet and outlet tube (μg·mL^−1), respectively. Qin and Qout represent the inlet and outlet volume of effluent perfusate (mL), respectively. Q is the volume flow rate of perfusion (mL·h^−1). V is the volume of the intestinal segment concerned (mL). 2πrl is the area of the mass transfer surface of intestinal segment concerned (cm^2).

rat duodenum = test: SPIP of MDQ-TS with or without amantadine (endocytosis inhibitor); assay type: in vivo; conditions: MDQ-TS 2.5 mg/mL; for decrease of absorption compared with non-Amantadine added group: amantadine 2.5 mmol·L^−1
Experimental: as §1, §2
as §3, with “(cm^2). […]” for “(cm^2).”

[2] = Stability in outflow perfusate matrix; assay type: physicochemical; conditions: 37 °C
Experimental: The chromatographic method was validated for specificity, linearity and LOQ, accuracy and precision, extraction recovery, matrix, and stability. The validation parameters were studied using drug-free (blank) intestinal perfusate mixture that had passed through intestinal segments, and had been collected from five different rats. Specificity was evaluated by analyzing the intestinal perfusion blank and perfusion blank spiked with analytes to investigate the potential interferences of intestinal perfusate endogenous with the analytes; calibration and quality control (QC) samples were obtained by spiking mixed working standard solution in blank intestinal perfusion buffer. Calibration curves were constructed in the range of 20–1000 μg·mL^−1 for C1 (20, 40, 100, 200, 400, and 1000 μg·mL^−1), and 8.0–400.0 μg·mL^−1 for C2, C3, C4, DC1 and DC2 (8.0, 16.0, 40.0, 80.0, 160.0, and 400.0 μg·mL^−1). A weighted (1/x^2) linear least-squares linear regression method was used to determine the slope, intercept, and correlation coefficient; LOQ was determined by injection a series of standard solutions until the signal-to-noise (S/N) ratio was 10; Precision and accuracy were assessed at low, medium, and high concentration levels (40, 200, and 800 μg·mL^−1 for C1; 16, 80, and 320 μg·mL^−1 for C2, C3, C4, DC1, and DC2). Intra-day data was obtained by assaying six replicates at each concentration level in a day, and inter-day data was determined by analyzing QC samples in duplicates during three separate and successive days; The extraction recovery of the six analytes and IS from the outflow perfusate matrix was determined by comparing the mean peak areas of six replicates processed QC samples at each concentration level spiked before extraciton with those from outflow perfusate spiked after extraction; Matrix effect was assessed by comparing the mean peak areas of six replicates at each concentration level dissolved in the post-extracted intestinal perfusate matrix with those of neat standards (C1, C2, C3, C4, DC1, DC2, and IS) spiked in methanol at corresponding concentration levels; Stabilities of C1, C2, C3, C4, DC1, and DC2 in outflow perfusate matrix (12 h, 37 °C), processed samples (auto-sampler condition for 24 h), after freeze-thaw cycle and long-term cold storage (−20 °C, 14 days) were assayed by QC samples in six replicates at three concentration level.

[3] = monomer form, duodenum, concentration equivalent to 2.5 mg·mL^−1 MDQ-TS, n = 5

Compound	Ka ([1]; monomer form, duodenum, symbol)	Papp ([1]; monomer form, duodenum, symbol)	Ka ([1]; monomer form, ileum, symbol)	Papp ([1]; monomer form, ileum, symbol)	Ka ([1]; monomer form, jejunum, symbol)	Papp ([1]; monomer form, jejunum, symbol)	intestinal absorption of monomers ([1]; monomer form)	decrease of absorption compared with non-Amantadine added group (rat duodenum) [%]	absorption when co-perfusion with Amantadine (rat duodenum; amantadine 2.5 mmol·L^−1, result in words)	stability in outflow perfusate matrix [2]	Papp ([1]; administered in monomer forms, summary bound) [cm/min]	Ka [1, 3]	Papp [1, 3]	Ka ([1]; monomer form, ileum, n = 5)	Papp ([1]; monomer form, ileum, n = 5)	Ka ([1]; monomer form, jejunum, n = 5)	Papp ([1]; monomer form, jejunum, n = 5)	permeability classification [1]
C[C@@H]1O[C@@H](O[C@H]2[C@H](O[C@H]3[C@H](O[C@H]4CC[C@]5(C)[C@H]6CC=C7[C@H]8[C@](C(=O)O[C@@H]9O[C@H](CO)[C@@H](O)[C@H](O)[C@H]9O)(CC[C@H](C)[C@@]8(C)O)CC[C@@]7(C)[C@]6(C)CC[C@H]5C4(C)C)OC[C@@H](O)[C@@H]3O)O[C@H](CO)[C@@H](O)[C@@H]2O)[C@H](O)[C@H](O)[C@H]1O [DC2, ilexoside O]	-	-	-	-	-	-	could not be absorbed by small intestine at all; also recorded: no absorption; also recorded: could not be absorbed by the gastrointestinal tract at all	100	completely inhibited	at least 12 h								
C[C@H]1CC[C@]2(C(=O)O)CC[C@]3(C)C(=CC[C@@H]4[C@@]5(C)CC[C@H](O[C@@H]6OC[C@@H](O)[C@H](O)[C@H]6O[C@@H]6O[C@H](CO)[C@@H](O)[C@H](O)[C@H]6O)C(C)(C)[C@@H]5CC[C@]43C)[C@@H]2[C@]1(C)O [C3, ilexsaponin B1]										at least 12 h	> 0.0012	1.49 ± 0.36 ×10^−2 min^−1	0.23 ×10^−2 cm·min^−1 and 0.23 ± 0.02 ×10^−2 cm·min^−1	1.38 ± 0.06 ×10^−2 min^−1	0.21 ± 0.06 ×10^−2 cm·min^−1	1.56 ± 0.30 ×10^−2 min^−1	0.23 ×10^−2 cm·min^−1 and 0.23 ± 0.05 ×10^−2 cm·min^−1	highly permeable
C[C@@H]1O[C@@H](O[C@H]2[C@H](O[C@H]3[C@H](O[C@H]4CC[C@]5(C)[C@H]6CC=C7[C@H]8[C@](C(=O)O)(CC[C@H](C)[C@@]8(C)O)CC[C@@]7(C)[C@]6(C)CC[C@H]5C4(C)C)OC[C@@H](O)[C@@H]3O)O[C@H](CO)[C@@H](O)[C@@H]2O)[C@H](O)[C@H](O)[C@H]1O [C4, ilexsaponin B2]	-	-	-	-	-	-	could not be absorbed by small intestine at all; also recorded: no absorption; also recorded: could not be absorbed by the gastrointestinal tract at all	31		at least 12 h								
C[C@@H]1CC[C@]2(C(=O)O)CC[C@]3(C)C(=CC[C@@H]4[C@@]5(C)CC[C@H](O)[C@@](C)(C(=O)O)[C@@H]5CC[C@]43C)[C@@H]2[C@]1(C)O [C1, ilexgenin A]								40		at least 12 h		1.77 ± 0.17 ×10^−2 min^−1		1.50 ± 0.25 ×10^−2 min^−1		1.65 ± 0.19 ×10^−2 min^−1		highly permeable
CC1CCC2(C(=O)OC3OC(CO)C(O)C(O)C3O)CCC3(C)C(=CCC4C5(C)CCC(O)C(C)(C(=O)O)C5CCC43C)C2C1(C)O (stereo not drawn) [C2, ilexsaponin A1]								71		at least 12 h		1.40 ± 0.29 ×10^−2 min^−1		1.62 ± 0.32 ×10^−2 min^−1	0.25 ± 0.03 ×10^−2 cm·min^−1	1.72 ± 0.16 ×10^−2 min^−1	0.25 ± 0.01 ×10^−2 cm·min^−1	highly permeable
ilexsaponin B3 [DC1]	-	-	-	-	-	-	could not be absorbed by small intestine at all; also recorded: no absorption; also recorded: could not be absorbed by the gastrointestinal tract at all	53		at least 12 h								
